The subject of data set [1] is K562 leukemic cell line. Also noted: method as in PMID 20657389, PMID 25482722, PMID 30465514, PMID 31003438. As to conditions: lead compound; ref [32],[33],[34],[35]; cited from earlier work.
The subject of data set [2] is HeLa cancer cells. Also noted: method as in PMID 20657389, PMID 25482722, PMID 30465514, PMID 31003438. The conditions noted are these: lead compound; ref [32],[33],[34],[35]; cited from earlier work.
The test system of data set [3] is HL-60 leukemic cell line. Also noted: method as in PMID 20657389, PMID 25482722, PMID 30465514, PMID 31003438. The conditions noted are these: lead compound; ref [32],[33],[34],[35]; cited from earlier work.
The subject of data set [4] is SW620 cells (human metastatic colon cancer). In words: MTT cytotoxicity assay, SW620. The format is cell-based. The conditions noted are these: SW-620, 72 h incubation, mean ± SD. The method, then:
(§1) The cell viability was analyzed at the following six concentrations of compounds: 5, 10, 20, 40, 60 and 100 µM after 72 h incubation.
(§2) Additionally, to determine the safety profile of the tested compounds, the therapeutic index (TI) (the ratio of IC50 value in HaCaT to cancer cells K562) was calculated. […] The goal of conducting the MTT assay in this research was to select benzofuran derivatives, which manage to reduce viability of cancer cells while exposing mild effects on normal healthy cells.
(§3) The cytotoxicity was evaluated by MTT reduction assay, which measures mitochondrial respiratory function. The test was performed based on the method described by Präbst et al.. Cells (1 × 10^4/well), in logarithmic phase, were seeded into 96-well plates in appropriate medium. After 24 h, cells were exposed to test compounds. […] After 72 h, the medium with the compounds was completely removed and MTT solution (0.5 mg/mL) in fresh medium without serum was added to each well. Plates with cells were incubated for 4 h at 37 °C in the dark. Then, MTT solution was removed and replenished with 0.1 mL DMSO: isopropanol (1:1) mixture to dissolve the generated formazan crystals. The optical density was measured with a […] GO (ThermoScientific) microplate reader at 570 nm. Replicates of three wells for each dosage, including vehicle control, were analyzed for each experiment. The experiments were conducted in triplicate. Control cells which were only treated with respective medium were used as the 100% viability value. […] Additionally, to determine the safety profile of the test compounds, therapeutic indexes (TI) (the ratio of IC50 values in HaCat to cancer cells (K562, PC3, SW620, Cack-1)) were calculated.
For orientation: Tetrazolium assays rely on reduction of a dye to a coloured formazan, in cell work by metabolically active cells.

Data set [5] concerns PC3 cells (human metastatic prostate cancer). Kind of data set: MTT cytotoxicity assay, PC3. It is filed as cell-based. The conditions noted are these: PC-3, 72 h incubation, mean ± SD. The method, then:
as §1, §2, §3

For data set [6], the system named is HaCaT cells (human immortal keratinocytes). In words: MTT cytotoxicity assay, HaCaT. The format is cell-based. As to conditions: 72 h incubation, mean ± SD. How it is done: as §1, §2, §3
Data set [7] concerns Cacki-1 cells (human clear cell renal cell carcinoma). In words: MTT cytotoxicity assay, Cacki-1. The format is cell-based. As to conditions: 72 h incubation. How it is done:
as §1, §2, §3

The subject of data set [8] is K562 cells (human chronic myelogenous leukemia). Kind of data set: MTT cytotoxicity assay, K562. The conditions noted are these: 72 h incubation, mean ± SD. The format is cell-based. How it is done:
as §1, §2, §3

In data set [9] the test system is clinical strains. Kind of data set: organism not typed. It is filed as cell-based. As to conditions: read-out: MIC clinical strains. How it is done: (§4) The antimicrobial activity of compounds was expressed by minimum inhibitory concentration values (MICs), according to CLCI reference procedures with some modifications. MIC was tested by the two-fold serial microdilution method (in 96-well microtiter plates) on MH II liquid medium. The final inoculum of all of the studied bacteria was 10^6 CFU/mL (colony forming unit per mL). The stock solution of tested compounds was prepared in DMSO and was diluted in sterile medium (to a maximum of 1% of solvent content). The concentrations of compounds were from 16 to 512 µg/mL. […] Clinical microorganisms used in this study were obtained from the collection of the Department of Pharmaceutical Microbiology, Medical University of Warsaw, Poland [70, 71].

Data set [10] has as its system S. epidermidis ATCC 35984. Kind of data set: MIC, microdilution. It is filed as cell-based. The conditions noted are these: Staphylococcus epidermidis, ATCC35984; 18 h, 35 °C, MH II medium. How it is done:
(§5) The antimicrobial studies for all of the obtained compounds were conducted using reference strains of bacteria derived from international microbe collections—the American Type Culture Collection (ATCC) and the National Collection of Type Culture (NCTC). Among the reference strains there were two Gram-negative rods (P. aeruginosa ATCC 15442 and E. coli ATCC 25922) and six Gram-positive isolates (Staphylococcus aureus: NCTC 4163, ATCC 25923, ATCC 6538, ATCC 29213, S. epidermidis ATCC 12228, ATCC 35984).
as §4
In general terms: Dilution methods test growth across graded concentrations, often in twofold steps.

The test system of data set [11] is S. epiderminis ATCC 122228. In words: MIC, microdilution. It is filed as cell-based. The conditions noted are these: Staphylococcus epidermidis, ATCC122228, 18 h, read-out: MIC S. epiderminis ATCC 122228. The method, then: as §5, §4
The test system of data set [12] is S.aureus NCTC 29213. In words: MIC, microdilution. It is filed as cell-based. As to conditions: Staphylococcus aureus, NCTC29213, 18 h, read-out: MIC S.aureus NCTC 29213. The method, then:
as §5, §4

In data set [13] the test system is S.aureus ATCC 25923. Kind of data set: MIC, microdilution. The format is cell-based. As to conditions: Staphylococcus aureus, ATCC25923; 18 h, 35 °C, MH II medium. The method, then:
as §5, §4

Data set [14] has as its system S.aureus ATCC 6538. Kind of data set: MIC, microdilution. It is filed as cell-based. As to conditions: Staphylococcus aureus, ATCC6538; 18 h, 35 °C, MH II medium. The method, then: as §5, §4
Data set [15] concerns E. coli ATCC 25922. Kind of data set: MIC, microdilution. The conditions noted are these: Escherichia coli, ATCC25922; 18 h, 35 °C, MH II medium. It is filed as cell-based. How it is done:
as §5, §4

In data set [16] the test system is S.aureus NCTC 4163. Kind of data set: MIC, microdilution. The format is cell-based. As to conditions: Staphylococcus aureus, NCTC4163; 18 h, 35 °C, MH II medium. The method, then: as §5, §4
Data set [17] deals with P. aeruginosa ATCC 15442. Kind of data set: MIC, microdilution. It is filed as cell-based. The conditions noted are these: Pseudomonas aeruginosa, ATCC15442; 18 h, 35 °C, MH II medium. The method, then: as §5, §4

The structures appear in SMILES notation. ≈ marks a conversion by molar mass, not a printed value.

A word on the IC50: it is the concentration needed to halve the response being measured. The term melting point denotes the temperature of the solid-liquid transition. One may read the MIC as the smallest concentration in the dilution series that meets the test's criterion for growth inhibition.

As to `COc1cc2c(CBr)c(C(C)=O)oc2c(C(C)=O)c1OC` [1,1′-[3-(bromomethyl)-5,6-dimethoxy-1-benzofuran-2,7-diyl]diethanone], the IC50 was 5 µM in [1] and 0.1 µM in [3]. Also, the “Toxicity toward HeLa cancer cells” value in [2] is recorded as “exhibiting toxicity toward neither HeLa cancer cells”.

In turn, `COc1cc(OC)c2c(C)c(C(C)=O)oc2c1` [Compound 2, 1-(4,6-Dimethoxy-3-Methyl-1-Benzofuran-2-yl)Ethanone] showed a melting point of 115 to 118 °C. In data set [4], the half-inhibitory concentration (IC50) was greater than 100 µM. Also, the IC50 in data set [5] is greater than 100 µM. The compound also displayed a half-inhibitory concentration (IC50) in data set [6] of 67.3 ± 29.7 µM. In [7], this compound had an IC50 greater than 100 µM. In data set [8], this compound registered a half-maximal inhibitory concentration (IC50) of 36.3 ± 4.5 µM.

`COc1ccc2oc(C(C)=O)c(C)c2c1` [Compound 1, 1-(5-Methoxy-3-Methyl-1-Benzofuran-2-yl)Ethanone] gave a melting point of 93 to 96 °C. In data set [4], this compound registered a half-inhibitory concentration (IC50) greater than 100 µM. In data set [5], the IC50 is 80 ± 20 µM. Further, the 50% inhibitory concentration (IC50) in [6] was greater than 100 µM. Also, in data set [7], the 50% inhibitory concentration (IC50) was greater than 100 µM. This compound also displayed an IC50 in data set [8] of 57 ± 3.5 µM.

`COc1ccc2oc(C(C)=O)c(CBr)c2c1` [Compound 5, 1-[3-(Bromomethyl)-5-Methoxy-1-Benzofuran-2-yl]Ethanone] showed a melting point of 103 to 106 °C. This compound also registered an IC50 in [4] of 15.6 ± 4.1 µM. The compound further yielded an IC50 in data set [5] of 17.5 ± 3.5 µM. Also, in [6], the half-maximal inhibitory concentration (IC50) was 15 ± 0.8 µM. This compound had an IC50 in data set [7] greater than 100 µM. In data set [8], the 50% inhibitory concentration (IC50) turned out to be 10.3 ± 0.55 µM.

In turn, `CCOc1ccc2c(CBr)c(C(C)=O)oc2c1` [Compound 9, 1-[3-(Bromomethyl)-6-Ethoxy-1-Benzofuran-2-yl]Ethanone] showed a melting point of 98 to 105 °C. The half-maximal inhibitory concentration (IC50) in data set [4] was greater than 100 µM. In addition, in data set [5], half-maximal inhibition (IC50) required 40 ± 20 µM. For the same compound, half-maximal inhibition in data set [6] (IC50) required 22.8 ± 1.51 µM. This compound returned a 50% inhibitory concentration (IC50) in data set [7] greater than 100 µM. The IC50 in data set [8] worked out at 14.4 ± 3.7 µM.

As to `COc1cccc2c1C(=O)c1c(O)c3c(c(O)c1C2=O)C[C@@](O)(C(=O)CO)C[C@@H]3O[C@H]1C[C@H](N)[C@H](O)[C@H](C)O1` [Doxorubicin, reference compound], in data set [8], half-maximal inhibition (IC50) required 0.21 ± 0.1 µM.

In [8], `CC(C)C[C@H](NC(=O)[C@H](Cc1ccccc1)NC(=O)c1cnccn1)B(O)O` [Bortezomib, reference compound] yielded an IC50 of 0.04 ± 0.01 µM.

Compound `CCOc1cccc2oc(C(C)=O)c(C)c12` [Compound 3, 1-(4-Ethoxy-3-Methyl-1-Benzofuran-2-yl)Ethanone] gave a melting point of 60 to 65 °C. Also, inhibition in data set [4] was half-maximal at 52.3 ± 22.5 µM (IC50). This compound registered a half-maximal inhibitory concentration (IC50) in data set [5] of 66.4 ± 28.7 µM. This compound displayed an IC50 in [6] greater than 100 µM. For the same compound, in [7], the 50% inhibitory concentration (IC50) was greater than 100 µM. In data set [8], this compound registered an IC50 of 58 ± 21.1 µM.

`COc1cc2oc(C(C)=O)c(CBr)c2c(OC)c1Br` [Compound 7, 1-[5-Bromo-3-(Bromomethyl)-4,6-Dimethoxy-1-Benzofuran-2-yl]Ethanone] yielded a melting point of 165 to 171 °C. Besides, in [9], the MIC is greater than 250 µg/mL. The half-inhibitory concentration (IC50) in data set [4] is 47.1 ± 22.2 µM. Moreover, in [5], it took 40 ± 15 µM to reach half-maximal inhibition (IC50). In [6], this compound yielded an IC50 of 5.69 ± 5.67 µM. For the same compound, the minimal inhibitory concentration (MIC) in data set [10] was found to be 16 µg/mL (≈ 40.8 µM). Also, the minimum inhibitory concentration (MIC) in [11] was 16 µg/mL (≈ 40.8 µM). Further, in data set [12], the minimum inhibitory concentration (MIC) was 32 µg/mL (≈ 81.6 µM). This compound also showed a minimum inhibitory concentration (MIC) in data set [13] of 16 µg/mL (≈ 40.8 µM). For the same compound, in data set [14], the lowest concentration to inhibit growth (MIC) was 64 µg/mL (≈ 163 µM). Moreover, the minimum inhibitory concentration (MIC) in data set [15] was greater than 512 µg/mL. In addition, the MIC in [16] is greater than 512 µg/mL. Further, the minimal inhibitory concentration (MIC) in data set [17] is greater than 512 µg/mL. For the same compound, the 50% inhibitory concentration (IC50) in data set [7] is greater than 100 µM. Moreover, it took 50 ± 10 µM to reach half-maximal inhibition in [8] (IC50).

In the case of `CCOc1ccc2c(C)c(C(C)=O)oc2c1` [Compound 4, 1-(6-Ethoxy-3-Methyl-1-Benzofuran-2-yl)Ethanone], the melting point fell in the range of 86 to 90 °C. In data set [4], this compound had a half-maximal inhibitory concentration (IC50) greater than 100 µM. Further, the IC50 in [5] is greater than 100 µM. The same compound registered an IC50 in data set [6] of 55.3 ± 33.4 µM. For the same compound, the half-maximal inhibitory concentration (IC50) in [7] is greater than 100 µM. For the same compound, the IC50 in [8] is 60 ± 9 µM.

These data come from PMC10888192, “New Derivatives of 1-(3-Methyl-1-Benzofuran-2-yl)Ethan-1-one: Synthesis and Preliminary Studies of Biological Activity” (International Journal of Molecular Sciences, 2024).
